Values after ≈ are worked out from the molar mass of the structure shown.
system: NSCLC; test: Cytotoxicity against human NSCLC cells by MTT assay; format: functional, cell-based

With `CC1=C[C@H](c2c(O)cc(O)c(C(=O)CCc3ccccc3)c2O)[C@H](C(C)C)CC1` [LINDERATIN] as the molecule, how does the IC50 read?
The IC50 was 3.8 µg/mL (≈ 9.63 µM).

How did the IC50 turn out when `CC1=C[C@H](c2c(O)c(C(=O)CCc3ccccc3)c(O)c([C@H]3C=C(C)CC[C@H]3C(C)C)c2O)[C@H](C(C)C)CC1` [NEOLINDERATIN] was run?
The IC50 was greater than 30 µg/mL.

How did the IC50 turn out when `CC1=C[C@H](c2c(O)c(C(=O)CCc3ccccc3)c(O)c([C@H]3C=C(C)CC[C@@H]3C(C)C)c2O)[C@@H](C(C)C)CC1` was run?
Its IC50 is greater than 30 µg/mL.

How did the IC50 turn out when `CC1=C[C@H](c2c(O)cc(O)c(C(=O)CCc3ccccc3)c2O)[C@@H](C(C)C)CC1` was run?
The IC50 was greater than 30 µg/mL.

From ChEMBL document CHEMBL1158322, “New Terpenylated Dihydrochalcone Derivatives Isolated from Mitrella kentii” (J Nat Prod, 1997)
